Experimental data published in the NIST ThermoML archive (doi:10.1016/j.fluid.2015.01.026).
Numbers after ± are expanded uncertainties.

Conditions: 298.15 K; 101.33 kPa; Liquid; Vibrating tube method

SMILES	mass density [kg/m3]
CC(=O)c1ccccc1 [acetophenone]	1023.05 ± 0.25
CCCCCCCCCCCC [dodecane]	741.523 ± 0.58
CCCCCCCCCCCCCC [tetradecane]	759.275 ± 0.24
CCCCCCCCCCCCCCCC [hexadecane]	770.221 ± 0.24
CCCCCCCCCC [decane]	726.347 ± 0.24
